A word on the Kd: it is a measure of binding affinity in units of concentration. High values mean lower affinity, low ones higher affinity.

This note sets out measurements from patent US20250368648A1, “MULTI-CYCLIC IRAK AND FLT3 INHIBITING COMPOUNDS AND USES THEREOF” (CHILDREN'S HOSPITAL MEDICAL CENTER, priority 2022, published 2025).

For one assay, the target named is T1, FLT3 Autoinh. (Homo sapiens, UniProt P36888).
T1 construct: purchased DiscoverX (KINOMEscan); host or cells: E. coli (T7 phage) or HEK-293
T1 sequence (P36888 564-993 limits assumed): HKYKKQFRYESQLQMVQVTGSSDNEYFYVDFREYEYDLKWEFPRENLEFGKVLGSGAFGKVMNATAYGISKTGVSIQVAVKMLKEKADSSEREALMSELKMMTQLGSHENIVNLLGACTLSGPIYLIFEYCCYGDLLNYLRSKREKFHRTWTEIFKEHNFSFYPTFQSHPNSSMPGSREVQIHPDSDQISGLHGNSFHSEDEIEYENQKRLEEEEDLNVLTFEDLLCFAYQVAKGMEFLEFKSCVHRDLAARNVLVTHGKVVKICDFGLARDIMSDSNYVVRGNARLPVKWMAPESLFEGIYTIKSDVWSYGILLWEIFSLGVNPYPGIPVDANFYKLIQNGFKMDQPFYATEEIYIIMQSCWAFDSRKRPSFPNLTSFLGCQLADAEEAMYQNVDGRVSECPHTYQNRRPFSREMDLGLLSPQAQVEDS
As to the kind of experiment: DiscoverX KINOMEscan competition binding, FLT3 Autoinh. The settings on record: no ATP. From the text: (§1) Kinase binding data were obtained for various exemplary compounds prepared according to Examples 2-15 using the DiscoverX KINOMEscan® active site-directed competition binding site-directed assay protocol described below. […] As a result, the data report thermodynamic interaction affinities (Kd values), rather than IC50 values that are dependent on ATP concentrations. The assay uses a DNA-tagged version of the protein kinase, and an immobilized ligand bound to a solid support. Compounds that directly or indirectly prevent kinase binding to the immobilized ligand reduce the amount of kinase captured on the solid support, which is detected using an ultra-sensitive qPCR method. Affinity constants reported from the assay have been reported to be independent of the immobilized ligand used that is coupled to the solid support (See supplemental information in Fabian, M. A. et. al., (2005) Nat. […] Wodicka, L. […] Biol. 17, 1241-1249.) Kinase-tagged T7 phage strains were prepared in an E. coli host derived from the BL21 strain. E. coli were grown to log-phase and infected with T7 phage and incubated with shaking at 32° C. until lysis. […] Kds were determined using an 11-point 3-fold compound dilution series with three DMSO control points. […] The kinase concentration in the eluates was measured by qPCR. Binding constants (Kds) were calculated with a standard dose-response curve using the Hill equation. […]

In another assay the target is T2, FLT3 (Homo sapiens, UniProt P36888).
T2 sequence (P36888 27-993): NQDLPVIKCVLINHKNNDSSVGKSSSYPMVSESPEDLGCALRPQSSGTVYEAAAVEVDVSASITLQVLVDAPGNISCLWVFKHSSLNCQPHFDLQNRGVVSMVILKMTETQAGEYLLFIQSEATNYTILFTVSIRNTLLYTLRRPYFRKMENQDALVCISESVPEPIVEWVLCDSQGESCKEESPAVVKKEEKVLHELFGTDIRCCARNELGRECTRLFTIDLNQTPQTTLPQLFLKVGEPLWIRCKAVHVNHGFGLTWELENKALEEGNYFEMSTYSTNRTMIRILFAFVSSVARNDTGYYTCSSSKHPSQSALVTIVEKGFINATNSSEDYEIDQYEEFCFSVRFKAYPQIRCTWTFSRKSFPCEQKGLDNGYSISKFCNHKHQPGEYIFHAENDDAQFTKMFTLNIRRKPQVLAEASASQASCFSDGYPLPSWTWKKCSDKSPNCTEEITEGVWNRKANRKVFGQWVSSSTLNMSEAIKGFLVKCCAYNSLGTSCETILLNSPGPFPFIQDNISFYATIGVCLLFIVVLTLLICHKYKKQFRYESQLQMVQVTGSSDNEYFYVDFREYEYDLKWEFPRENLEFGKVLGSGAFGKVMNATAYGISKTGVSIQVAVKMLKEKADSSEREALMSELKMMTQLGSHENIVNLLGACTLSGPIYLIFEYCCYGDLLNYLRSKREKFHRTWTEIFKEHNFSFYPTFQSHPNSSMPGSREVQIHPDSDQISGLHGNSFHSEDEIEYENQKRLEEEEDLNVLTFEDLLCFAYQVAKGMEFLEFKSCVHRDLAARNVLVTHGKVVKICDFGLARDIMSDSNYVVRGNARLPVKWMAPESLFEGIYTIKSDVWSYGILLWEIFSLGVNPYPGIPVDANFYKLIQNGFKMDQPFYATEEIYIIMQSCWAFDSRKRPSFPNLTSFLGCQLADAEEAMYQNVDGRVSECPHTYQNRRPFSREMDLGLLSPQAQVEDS
In words: DiscoverX KINOMEscan competition binding, FLT3. Also noted: purchased RBC (Reaction Biology) HotSpot assay. As to conditions: no ATP.
Excerpt: as §1

On to `COc1cc2ncc(-c3nc(N[C@H]4CNCC[C@@H]4F)c(F)cc3F)n2nc1C1CCC1` [Compound 15a, 6-(6-cyclobutyl-7-methoxyimidazo[1,2-b]pyridazin-3-yl)-3,5-difluoro-N-((3S,4S)-4-fluoropiperidin-3-yl)pyridin-2-amine], for which the equilibrium dissociation constant (Kd) at FLT3 Autoinh. was 5.8 nM; at FLT3 it was less than 0.17 nM.
